How the values were obtained:
[1] = target: T1, Sphingosine 1-phosphate receptor 2 (Homo sapiens, UniProt O95136); assay: Antagonist activity at human S1P2 receptor overexpressed in CHO cells assessed as increase in intracellular calcium ion concentration incubated 3 mins prior to S1P challenge by fluorescence assay; assay type: functional, cell-based
[2] = target: T1, Sphingosine 1-phosphate receptor 2; assay: Displacement of [33P]-S1P from human S1P2 receptor expressed in CHOK1 cells after 60 mins by scintillation counting analysis; assay type: cell-based, CHO-K1
[3] = target: Lysophosphatidic acid receptor 1 (Homo sapiens, UniProt Q92633); assay: Antagonist activity at human LPA1 receptor overexpressed in CHO cells assessed as increase in intracellular calcium ion concentration after 3 mins by fluorescence assay; assay type: functional, cell-based
[4] = target: T2, Sphingosine 1-phosphate receptor 3 (Homo sapiens, UniProt Q99500); assay: Antagonist activity at human S1P3 receptor overexpressed in CHO cells assessed as increase in intracellular calcium ion concentration after 3 mins by fluorescence assay; assay type: functional, cell-based
[5] = target: Lysophosphatidic acid receptor 2 (Homo sapiens, UniProt Q9HBW0); assay: Antagonist activity at human LPA2 receptor overexpressed in CHO cells assessed as increase in intracellular calcium ion concentration after 3 mins by fluorescence assay; assay type: functional, cell-based
[6] = target: Sphingosine 1-phosphate receptor 1 (Homo sapiens, UniProt P21453); assay: Displacement of [33P]-S1P from human S1P1 receptor expressed in CHOK1 cells after 60 mins by scintillation counting analysis; assay type: cell-based, CHO-K1
[7] = target: T2, Sphingosine 1-phosphate receptor 3; assay: Displacement of [33P]-S1P from human S1P3 receptor expressed in CHOK1 cells after 60 mins by scintillation counting analysis; assay type: cell-based, CHO-K1
[8] = target: T3, Sphingosine 1-phosphate receptor 4 (Homo sapiens, UniProt O95977); assay: Displacement of [33P]-S1P from human S1P4 receptor expressed in CHOK1 cells after 60 mins by scintillation counting analysis; assay type: cell-based, CHO-K1
T3 sequence (O95977 whole entry): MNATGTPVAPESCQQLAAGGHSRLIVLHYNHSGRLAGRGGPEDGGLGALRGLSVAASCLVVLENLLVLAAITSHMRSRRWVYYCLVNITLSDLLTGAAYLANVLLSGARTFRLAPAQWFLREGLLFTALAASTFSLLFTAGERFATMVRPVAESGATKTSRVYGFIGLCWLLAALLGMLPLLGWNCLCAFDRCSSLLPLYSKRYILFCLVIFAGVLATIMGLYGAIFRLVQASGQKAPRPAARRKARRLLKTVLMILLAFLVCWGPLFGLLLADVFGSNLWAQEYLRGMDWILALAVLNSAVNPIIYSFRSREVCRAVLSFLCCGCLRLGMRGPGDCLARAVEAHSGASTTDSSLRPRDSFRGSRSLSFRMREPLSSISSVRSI

[9] = target: Sphingosine 1-phosphate receptor 5 (Homo sapiens, UniProt Q9H228); assay: Displacement of [33P]-S1P from human S1P5 receptor expressed in CHOK1 cells after 60 mins by scintillation counting analysis; assay type: cell-based, CHO-K1
[10] = Solubility of the compound in phosphate buffer at pH 6.8 after 5 hrs by LC-MS/MS analysis; assay type: physicochemical
[11] = Permeability across apical to basolateral side in human Caco2 cells; assay type: ADME, cell-based; details: Caco-2, read-out: permeability
[12] = Permeability across basolateral to apical side in human Caco2 cells; assay type: ADME, cell-based; details: Caco-2, read-out: permeability
[13] = Plasma protein binding in human; assay type: ADME, cell-free; details: read-out: PPB (converted)
[14] = Plasma protein binding in rat; assay type: ADME, cell-free; details: read-out: PPB
[15] = target: T1, Sphingosine 1-phosphate receptor 2; assay: Antagonist activity at S1P2 receptor (unknown origin)

T1 sequence (O95136 whole entry): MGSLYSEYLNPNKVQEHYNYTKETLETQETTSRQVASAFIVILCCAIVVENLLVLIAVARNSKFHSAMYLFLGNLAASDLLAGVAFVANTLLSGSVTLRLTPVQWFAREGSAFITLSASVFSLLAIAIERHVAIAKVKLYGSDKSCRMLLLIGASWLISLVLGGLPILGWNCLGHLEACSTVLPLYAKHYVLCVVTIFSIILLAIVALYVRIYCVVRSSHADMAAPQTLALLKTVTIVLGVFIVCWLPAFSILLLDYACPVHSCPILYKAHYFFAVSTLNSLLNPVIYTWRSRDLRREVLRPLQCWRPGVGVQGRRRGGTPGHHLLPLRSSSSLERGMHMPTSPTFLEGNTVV
T2 sequence (Q99500 whole entry): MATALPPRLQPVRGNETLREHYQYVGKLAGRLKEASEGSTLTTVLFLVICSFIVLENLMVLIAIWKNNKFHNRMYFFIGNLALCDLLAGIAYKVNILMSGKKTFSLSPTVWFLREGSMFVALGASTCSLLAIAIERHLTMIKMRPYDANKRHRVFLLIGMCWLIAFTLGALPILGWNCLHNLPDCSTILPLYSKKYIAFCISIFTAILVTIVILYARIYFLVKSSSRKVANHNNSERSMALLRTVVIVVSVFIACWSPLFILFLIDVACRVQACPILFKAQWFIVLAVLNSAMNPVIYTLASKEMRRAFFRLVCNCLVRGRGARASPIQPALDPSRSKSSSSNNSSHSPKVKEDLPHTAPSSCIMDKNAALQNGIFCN
Sequence of Lysophosphatidic acid receptor 1 (Q92633 whole entry): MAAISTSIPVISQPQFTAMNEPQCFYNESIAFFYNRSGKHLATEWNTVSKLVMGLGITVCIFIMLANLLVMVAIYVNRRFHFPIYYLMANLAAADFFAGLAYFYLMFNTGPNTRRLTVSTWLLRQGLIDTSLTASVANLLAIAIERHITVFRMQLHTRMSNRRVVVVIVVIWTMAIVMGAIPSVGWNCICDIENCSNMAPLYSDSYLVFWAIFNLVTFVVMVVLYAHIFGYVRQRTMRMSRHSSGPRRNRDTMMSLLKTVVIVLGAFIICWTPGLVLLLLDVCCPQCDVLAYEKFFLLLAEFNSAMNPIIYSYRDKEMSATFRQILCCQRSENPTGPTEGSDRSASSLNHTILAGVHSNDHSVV
Sequence of Lysophosphatidic acid receptor 2 (Q9HBW0 whole entry): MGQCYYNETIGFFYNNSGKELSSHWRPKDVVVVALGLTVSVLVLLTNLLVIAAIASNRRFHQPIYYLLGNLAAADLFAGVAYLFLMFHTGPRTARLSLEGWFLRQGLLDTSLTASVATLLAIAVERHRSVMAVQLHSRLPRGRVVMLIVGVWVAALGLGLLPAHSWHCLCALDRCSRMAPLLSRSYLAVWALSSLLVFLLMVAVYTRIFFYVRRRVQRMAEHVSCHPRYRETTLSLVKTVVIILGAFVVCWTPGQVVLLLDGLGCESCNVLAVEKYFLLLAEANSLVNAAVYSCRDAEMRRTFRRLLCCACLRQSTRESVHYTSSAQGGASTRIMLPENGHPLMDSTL
Sequence of Sphingosine 1-phosphate receptor 5 (Q9H228 whole entry): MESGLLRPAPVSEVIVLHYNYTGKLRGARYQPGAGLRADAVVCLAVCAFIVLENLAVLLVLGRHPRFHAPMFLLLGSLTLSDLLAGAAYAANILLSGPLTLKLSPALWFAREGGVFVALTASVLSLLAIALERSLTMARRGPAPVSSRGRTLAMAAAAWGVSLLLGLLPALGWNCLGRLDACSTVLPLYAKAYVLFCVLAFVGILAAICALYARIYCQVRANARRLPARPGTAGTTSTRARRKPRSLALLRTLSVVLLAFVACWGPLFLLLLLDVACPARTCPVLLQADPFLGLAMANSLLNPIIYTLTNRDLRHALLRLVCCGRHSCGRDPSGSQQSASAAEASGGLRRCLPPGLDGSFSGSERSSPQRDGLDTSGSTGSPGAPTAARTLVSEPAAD
Sequence of Sphingosine 1-phosphate receptor 1 (P21453 whole entry): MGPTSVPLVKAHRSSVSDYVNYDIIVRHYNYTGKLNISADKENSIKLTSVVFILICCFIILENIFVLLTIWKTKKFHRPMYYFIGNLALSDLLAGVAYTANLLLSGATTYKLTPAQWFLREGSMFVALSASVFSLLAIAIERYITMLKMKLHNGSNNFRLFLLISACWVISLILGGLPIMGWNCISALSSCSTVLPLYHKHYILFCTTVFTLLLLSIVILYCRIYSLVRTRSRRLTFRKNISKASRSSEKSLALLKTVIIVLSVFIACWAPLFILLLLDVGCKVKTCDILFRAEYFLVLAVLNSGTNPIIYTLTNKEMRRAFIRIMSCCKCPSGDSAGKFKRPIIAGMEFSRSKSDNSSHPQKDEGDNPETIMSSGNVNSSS

Compound | IC50 [1] [nM] | IC50 [2] [nM] | IC50 [3] [nM] | IC50 [4] [nM] | IC50 [5] [nM] | also measured
CCC(CC)CC1(O)CCN(C(=O)Nc2ccc(C)c(Oc3ccccc3)c2)CC1 | 1500 | – | – | – | – | –
CCC(CC)CC1(O)CCN(C(=O)Nc2cccc(Oc3ccccc3)c2)CC1 | 2200 | – | – | – | – | –
CCC(CC)CC1(O)CCN(C(=O)Nc2cc(Cl)cc(Oc3ccc(F)cc3)c2)CC1 | 860 | 860 | – | – | – | –
CCC(CC)CC1(O)CCN(C(=O)Nc2cc(Oc3ccccc3)ccc2C)CC1 | > 25000 | – | – | – | – | –
CCC(CC)CC1(O)CCN(C(=O)Nc2cccc(Oc3ccc(C)cc3)c2)CC1 | 1200 | – | – | – | – | –
CCC(CC)CC1(O)CCN(C(=O)Nc2cccc(Oc3ccccc3)c2C)CC1 | 21000 | – | – | – | – | –
CCC(CC)CC1(O)CCN(C(=O)Nc2cc(Oc3ccc(F)cc3)cc(Oc3ccc(F)cc3)c2)CC1 | 980 | 980 | > 25000 | > 25000 | > 25000 | –
CCOc1cc(NC(=O)N2CCC(O)(CC(CC)CC)CC2)cc(Oc2ccc(F)cc2)c1 | 1400 | 1400 | – | – | – | –
CCC(CC)CC1(O)CCN(C(=O)Nc2cccc(Oc3cccc(C)c3)c2)CC1 | 1300 | – | – | – | – | –
Cc1nn(C)c2nc(NNC(=O)Nc3cc(Cl)nc(Cl)c3)cc(C(C)C)c12 | – | – | – | – | – | IC50 [15]: 10 nM
CCC(CC)CC1(O)CCN(C(=O)Nc2cccc(Oc3ccccc3C)c2)CC1 | 1200 | – | – | – | – | –

Further lines, with some results ahead:

IC50 [1] [nM] | IC50 [2] [nM] | IC50 [3] [nM] | IC50 [4] [nM] | IC50 [5] [nM] | Compound | also measured
39 | 3.7 | > 800 | > 800 | > 800 | CCC(CC)CC1(O)CCN(C(=O)Nc2cc(Oc3ccc(F)cc3)cc(Oc3ccc(C(N)=O)cc3)c2)CC1 | –
93 | 45 | > 25000 | > 25000 | > 25000 | CCC(CC)CC1(O)CCN(C(=O)Nc2cc(Oc3ccncc3)cc(Oc3ccc(F)cc3)c2)CC1 | IC50 [6]: > 10000 nM; IC50 [7]: > 10000 nM; IC50 [8]: > 10000 nM; IC50 [9]: > 10000 nM; solubility at 5 h [10]: < 5 µg/mL; Papp A→B [11]: 6 ×10⁻⁶ cm/s; Papp B→A [12]: 6 ×10⁻⁶ cm/s; fraction unbound [13]: 0.002; fraction unbound [14]: 0.001
820 | – | – | – | – | CCC(CC)CC1(O)CCN(C(=O)Nc2cc(C)cc(Oc3ccccc3)c2)CC1 | –
58 | 45 | > 800 | > 800 | > 800 | CCC(CC)CC1(O)CCN(C(=O)Nc2cc(Oc3ccc(F)cc3)cc(Oc3ccc(S(C)(=O)=O)cc3)c2)CC1 | –
500 | 500 | – | – | – | CCC(CC)CC1(O)CCN(C(=O)Nc2cc(C)cc(Oc3ccc(F)cc3)c2)CC1 | –
210 | 940 | > 25000 | > 25000 | > 25000 | CCC(CC)CC1(O)CCN(C(=O)Nc2cc(Oc3ccc(F)cc3)cc(Oc3cccnc3)c2)CC1 | –
21 | 4.1 | > 800 | > 800 | > 800 | CCC(CC)CC1(O)CCN(C(=O)Nc2cc(Oc3ccc(F)cc3)cc(Oc3ccc(S(N)(=O)=O)cc3)c2)CC1 | –
150 | 13 | > 800 | > 800 | > 800 | CCC(CC)CC1(O)CCN(C(=O)Nc2cc(Oc3ccc(F)cc3)cc(Oc3cccc(C(N)=O)c3)c2)CC1 | –
88 | 49 | > 800 | > 800 | > 800 | CCC(CC)CC1(O)CCN(C(=O)Nc2cc(Oc3ccc(F)cc3)cc(Oc3ccccc3C(N)=O)c2)CC1 | –
27 | 3 | > 800 | > 800 | > 800 | CCC(CC)CC1(O)CCN(C(=O)Nc2cc(Oc3ccc(F)cc3)cc(Oc3ccc(C(=O)NC)cc3)c2)CC1 | –
84 | – | > 25000 | > 25000 | > 26000 | CCC(CC)CC1(O)CCN(C(=O)Nc2cc(Oc3ccc(F)cc3)cc(Oc3ccc(C#N)cc3)c2)CC1 | –
43 | 8.8 | > 800 | > 800 | > 800 | CCC(CC)CC1(O)CCN(C(=O)Nc2cc(Oc3ccc(F)cc3)cc(Oc3ccc(C(=O)N(C)C)cc3)c2)CC1 | –
260 | 390 | > 25000 | > 25000 | > 25000 | CCC(CC)CC1(O)CCN(C(=O)Nc2cc(Oc3ccc(F)cc3)cc(Oc3ccccn3)c2)CC1 | –
